Laboratory results: patent US20180207228A1, “PEPTIDE COMBINATIONS AND USES THEREOF FOR TREATING GRASS ALLERGY” (ALK-Abelló A/S, priority 2015, published 2018)
“Also recorded” adds a separate entry of the source. Where no end group is shown, it is not given here.

Legend:
Assay type in all cases: cell-based, human
[1] = test system: grass pollen allergic donor derived TCL-03 lines; experiment: Extended cross-reactivity study, proliferation on TCL03 DK1+DK2 (Study XR2), scoring; conditions: study XR2; for Cross-reactivity score, Dac g: homologue from Dac g; for Cross-reactivity score, Dac g / Cross-reactivity score, Fes p / Cross-reactivity score, Lol p / Cross-reactivity score, Pha a / Cross-reactivity score, Poa p / Cross-reactivity score, Cyn d / Cross-reactivity score, Pas n / Cross-reactivity score, Sor h: score 0 to 7; for Cross-reactivity score, Fes p: homologue from Fes p; for Cross-reactivity score, Lol p: homologue from Lol p; for Cross-reactivity score, Pha a: homologue from Pha a; for Cross-reactivity score, Poa p: homologue from Poa p; for Cross-reactivity sum: scores of all species added; for Cross-reactivity/species: sum divided by the number of species measured; for Cross-reactivity score, Cyn d: homologue from Cyn d; for Cross-reactivity score, Pas n: homologue from Pas n; for Cross-reactivity score, Sor h: homologue from Sor h
[2] = test system: grass allergic donor derived T cell lines (TCL-02 DK-2); experiment: Cross-reactivity of homologue peptides, proliferation on TCL02-DK2 (Study XR1); conditions: 2 μg/ml, TCL02-DK2, 21 donors
Experimental: To measure the experimental cross-reactivity the proliferation assay of Example 3 was carried out on 21 grass allergic donors (TCL02-DK2). […] Cross-reactivity to Phleum pratense peptides with either close (Lolium perenne (Lol p)) or distant (Phalaris aquatica (Pha a), Cynodon dactylon (Cyn d)) species was experimentally investigated.
For analysing the cross-reactivity data, it was investigated if a donor responds to both native and homologue peptide, XY correlation plots were made where the donor responses to native peptides were plotted versus the donor responses to homologues. […] If less than five donors were responding to the parent peptides, then the data was considered to be in-conclusive, and were thus labelled with “-”. For some of the peptides the analysis was further supported by performing a Spearman r-Non Parametric test (data not shown).
Further the magnitude of T cell response from a parent peptide as defined herein and homologue response were plotted in a XY plot by using GraphPad Prism 6.
To measure the experimental cross-reactivity, the proliferation assay of Example 3 was carried out on 21 grass pollen allergic donors (TCL02-DK2, Study XR1) and 20 grass pollen allergic donors (TCL03−DK1+DK2, Study XR2). […] In Study XR1, Cross-reactivity to Phleum pratense peptides with either close (Lolium perenne-Lol p) or distant ([…]-Pha a, Cynodon dactylon-Cyn d) species was experimentally investigated. In Study XR1, 67 homologue peptides corresponding to 41 native Phleum pratense peptides were investigated together with the 41 Phleum pratense peptides at a concentration of 2 μg/ml. Similarly, study XR2 was carried out on 20 grass pollen allergic donors where donor derived TCL-03 lines were used to investigate Phleum pratense cross-reactivity to Poa pratensis (Poa p), Dactylis glomerata (Dac g), Festuca pratensis (Fes p), Paspalum notatum (Pas n), Sorghum halepense (Sor h), Lolium perenne (Lol p), Phalaris aquatica (Pha a) and Cynodon dactylon (Cyn d).

[3] = test system: release of IL-5 upon T cell activation; experiment: Fluorospot assay, IL-5 release (DK1-TCL01, US1-TCL01); conditions: head prints TCL-02 DK1; text: 25 TCL-01 DK1 lines
Summary of the method: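 Grass-allergic donors' CD8-depleted PBMCs were expanded 14 days with natural grass allergens plus IL-2 to give TCL01 lines. These were incubated 20 h at 37° C with single peptides or peptide mixes at 2 μg/ml, and spot-forming cells were counted. Hit: SI≥2, p≤0.05, Poisson ≤0.05, ≥20 SFC/10^6 cells.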

[4] = test system: grass pollen allergic donor derived T cell lines; experiment: Dose response titration in T cell proliferation assay; conditions: single peptides, FIG. 21
Experimental: The dose-response relationship was tested by measuring the percentage of donor response (i.e. the percentage of donor coverage) in concentrations of 2.0, 0.1, 0.005 and 0.00025 μg/ml for the peptide combinations and in concentrations of 2.0, 0.2, 0.02 and 0.002 μg/ml for single peptides. The donor response was determined using T cell proliferation data as described in Example 3.
Relative magnitude value for a peptide or a peptide combination was calculated as percentage of highest T cell response to an allergen or a mix, by the same donor. In this way, allergen or peptide combination with highest magnitude of T cell response gets a value of 100 and T cell response magnitude of remaining peptides/peptide combinations are normalized or calculated relative to 100, for example Relative magnitude=100*(T cell response magnitude of peptide or combination/Highest T cell response in a donor). Relative magnitude were calculated mainly on Phl p 1. For donors non reactive to Phl p 1, Phl p 5 was used as reference
The donors were selected by seeking to maximize the HLA class II diversity in the donor cohort.
For peptide combinations, two set-ups were used:
A) Concentrations of 2.0, 0.1, 0.005 and 0.00025 μg/ml were tested on a set of T cell lines derived from 9 grass pollen allergic donors (same experiment as the data shown in FIG. 7b.).
B) Concentrations of 2.0, 0.066, 0.0022 and 0.00007 μg/ml were used on a set of T cell lines derived from 18 grass pollen allergic donors (same set as the donors used for testing of single peptides as described above).
Relative magnitude value for a peptide or a peptide combination was calculated as percentage of highest T cell response to an allergen or a mix, by the same donor. In this way, allergen or peptide combination with highest magnitude of T cell response gets a value of 100 and T cell response magnitude of remaining peptides/peptide combinations are normalized or calculated relative to 100, for example Relative magnitude=100*(T cell response magnitude of peptide or combination/Highest T cell response in a donor). […]

| Substance | Cross-reactivity score, Dac g [1] | Cross-reactivity score, Fes p [1] | Cross-reactivity score, Lol p [1] | Cross-reactivity score, Pha a [1] | Cross-reactivity score, Poa p [1] | Cross-reactivity sum [1] | Cross-reactivity/species [1] | experimental cross-reactivity [2] | IL-5-Fluorospotr % donor coverage (TCL-02 DK1) [3] [%] | average relative magnitude calculated over all donors [4] | Cross-reactivity score, Cyn d [1] | Cross-reactivity score, Pas n [1] | Cross-reactivity score, Sor h [1] |
| --- | --- | --- | --- | --- | --- | --- | --- | --- | --- | --- | --- | --- | --- |
| AYESYKFIPALEAAVKQAYA-OH [peptide 285] | 6 | 6 | 6 | 6 | 7 | 31 | 6.2 | – | – | – | – | – | – |
| DKYRTFVATFGAASNKAFAE-OH [peptide 231] | – | – | – | – | – | – | – | showed cross-reactivity | – | – | – | – | – |
| PANDKFTVFEAAFNNAIKAS-OH [compound 70] | – | – | – | – | – | – | – | showed cross-reactivity; also recorded: good cross reactivity | 16.00 | – | – | – | – |
| STGGAYESYKFIPALEAAVK-OH [compound 71] | 5 | 5 | 5 | 5 | 4 | 24 | 4.8 | showed cross-reactivity; also recorded: very good cross-reactivity | 32.00 | high | – | – | – |
| TDDNEEPIAPYHFDLSGHAF-OH [peptide 204] | 7 | 7 | 7 | 7 | 1.5 | 34 | 4.25 | showed cross-reactivity; also recorded: good cross-reactivity | – | – | 1.5 | 1 | 2 |
| VATLSEALRIIAGTLEVHAV-OH [compound 67] | – | – | – | – | – | – | – | showed cross-reactivity | 32.00 | – | – | – | – |
| WGAIWRIDTPDKLTGPFTVR-OH [peptide 211] | 5 | 4 | 4 | 7 | 3 | 25 | 3.12 | – | – | – | 0.5 | 1 | 0.5 |
